From US20190048016A1, “SUBSTITUTED BRIDGED UREA ANALOGS AS SIRTUIN MODULATORS” (GlaxoSmithKline Intellectual Property(No.2)Limited, priority 2014, published 2019)

Target: T1, SIRT1 (Homo sapiens, UniProt Q96EB6)
T1 sequence (Q96EB6 1-747): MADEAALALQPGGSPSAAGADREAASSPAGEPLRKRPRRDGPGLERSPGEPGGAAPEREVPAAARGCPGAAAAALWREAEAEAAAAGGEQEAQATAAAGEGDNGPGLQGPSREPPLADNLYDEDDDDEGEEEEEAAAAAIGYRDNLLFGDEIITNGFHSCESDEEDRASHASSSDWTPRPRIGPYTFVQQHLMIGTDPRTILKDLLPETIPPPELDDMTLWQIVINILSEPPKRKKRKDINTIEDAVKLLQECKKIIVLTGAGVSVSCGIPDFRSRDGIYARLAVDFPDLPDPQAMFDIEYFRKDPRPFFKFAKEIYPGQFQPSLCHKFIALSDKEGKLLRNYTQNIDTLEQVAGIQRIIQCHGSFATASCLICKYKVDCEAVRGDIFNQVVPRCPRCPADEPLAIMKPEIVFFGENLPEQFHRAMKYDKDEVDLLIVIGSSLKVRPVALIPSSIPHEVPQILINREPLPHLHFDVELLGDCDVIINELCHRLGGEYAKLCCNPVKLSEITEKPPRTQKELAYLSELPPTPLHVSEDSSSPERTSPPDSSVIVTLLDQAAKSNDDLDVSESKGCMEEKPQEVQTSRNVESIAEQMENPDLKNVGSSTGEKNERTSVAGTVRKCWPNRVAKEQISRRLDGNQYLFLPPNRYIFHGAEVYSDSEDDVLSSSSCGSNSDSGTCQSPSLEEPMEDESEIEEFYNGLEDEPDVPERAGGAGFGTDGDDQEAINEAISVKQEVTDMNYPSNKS
Assay: Trp mass spectrometry assay of SIRT1 activation (deacetylation of Ac-R-H-K-K(Ac)-W-NH2 peptide, OAADPR formation)
Assay type: biochemical
Conditions: Trp peptide 0.5 μM, 120 μM βNAD+, 10 nM SIRT1, 25 min, 25° C.; for Emax: 25 min, read-out: TRP MAX RESP (percent maximum fold activation relative to control = 100%)
Method in brief: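 10 nM His-tagged SIRT1 (E. coli expressed) with 0.5 μM Ac-RHKK(Ac)W-NH2 and 120 μM βNAD+, 25 min at 25° C, HEPES pH 7.5, […]; formic acid stop. OAADPR or deacetylated peptide measured by mass spectrometry; EC1.5 = concentration giving 150% activity versus DMSO control; maximum activation also reported.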

| SMILES | Emax | TRP Activity (EC1.5, concentration of compound required to increase SIRT1 activity by 50% over control) |
| --- | --- | --- |
| C[C@@H](NC(=O)c1nc2c(cc1Cl)N1CCC[C@@H](C1)N2C(=O)Nc1ccccn1)C(F)(F)F [Example 39, (9S)-3-chloro-N10-(pyridin-2-yl)-N2-((R)-1,1,1-trifluoropropan-2-yl)-8,9-dihydro-6H-5,9-methanopyrido[2,3-b][1,4]diazocine-2,10(7H)-dicarboxamide] | ≥ 150% | A (EC1.5<1 μM) |
| C[C@@H](NC(=O)c1ccc2c(n1)N(C(=O)Nc1ccon1)[C@H]1CCCN2C1)C(F)(F)F [Example 40, (9S)-N10-(isoxazol-3-yl)-N2-((R)-1,1,1-trifluoropropan-2-yl)-8,9-dihydro-6H-5,9-methanopyrido[2,3-b][1,4]diazocine-2,10(7H)-dicarboxamide] | ≥ 150% | A (EC1.5<1 μM) |
| Cc1ccc2c(NC(=O)N3c4nc(C(=O)NCC(F)(F)F)ccc4N4CCC[C@H]3C4)n[nH]c2n1 [Example 41, (9S)-N10-(6-methyl-1H-pyrazolo[3,4-b]pyridin-3-yl)-N2-(2,2,2-trifluoroethyl)-8,9-dihydro-6H-5,9-methanopyrido[2,3-b][1,4]diazocine-2,10(7H)-dicarboxamide] | ≥ 150% | A (EC1.5<1 μM) |
| Cc1ccc2c(NC(=O)N3c4nc(C(=O)NC5CC5)ccc4N4CCC[C@H]3C4)n[nH]c2n1 [Example 42, (9S)-N2-cyclopropyl-N10-(6-methyl-1H-pyrazolo[3,4-b]pyridin-3-yl)-8,9-dihydro-6H-5,9-methanopyrido[2,3-b][1,4]diazocine-2,10(7H)-dicarboxamide] | ≥ 150% | A (EC1.5<1 μM) |
| Cc1ccc2c(NC(=O)N3c4nc(C(=O)N[C@H](C)C(F)(F)F)ccc4N4CCC[C@H]3C4)n[nH]c2n1 [Example 43, (9S)-N10-(6-methyl-1H-pyrazolo[3,4-b]pyridin-3-yl)-N2-((R)-1,1,1-trifluoropropan-2-yl)-8,9-dihydro-6H-5,9-methanopyrido[2,3-b][1,4]diazocine-2,10(7H)-dicarboxamide] | ≥ 150% | A (EC1.5<1 μM) |
| Cc1ncc(-c2ccnc(NC(=O)N3c4nc(C(=O)N[C@H](C)C(F)(F)F)ccc4N4CCC[C@H]3C4)c2)s1 [Example 44, (9S)-N10-(4-(2-methylthiazol-5-yl)pyridin-2-yl)-N2-((R)-1,1,1-trifluoropropan-2-yl)-8,9-dihydro-6H-5,9-methanopyrido[2,3-b][1,4]diazocine-2,10(7H)-dicarboxamide] | ≥ 150% | A (EC1.5<1 μM) |
| Cc1ccc2c(NC(=O)N3c4nc(C(=O)N[C@H](C)C(F)(F)F)cc(C)c4N4CCC[C@H]3C4)n[nH]c2n1 [Example 47, (9S)-4-methyl-N10-(6-methyl-1H-pyrazolo[3,4-b]pyridin-3-yl)-N2-((R)-1,1,1-trifluoropropan-2-yl)-8,9-dihydro-6H-5,9-methanopyrido[2,3-b][1,4]diazocine-2,10(7H)-dicarboxamide] | ≥ 150% | A (EC1.5<1 μM) |
| C[C@@H](NC(=O)c1ccc2c(n1)N(C(=O)Nc1cnc(OC[C@H](O)CO)cn1)[C@H]1CCCN2C1)C(F)(F)F [Example 49, (9S)-N10-(5-((R)-2,3-dihydroxypropoxy)pyrazin-2-yl)-N2-((R)-1,1,1-trifluoropropan-2-yl)-8,9-dihydro-6H-5,9-methanopyrido[2,3-b][1,4]diazocine-2,10(7H)-dicarboxamide] | ≥ 150% | A (EC1.5<1 μM) |
| Cc1ncc(-c2ccnc(NC(=O)N3c4nc(C(=O)N[C@H](C)C(F)(F)F)c(Cl)cc4N4CCC[C@H]3C4)c2)o1 [Example 51, (9S)-3-chloro-N10-(4-(2-methyloxazol-5-yl)pyridin-2-yl)-N2-((R)-1,1,1-trifluoropropan-2-yl)-8,9-dihydro-6H-5,9-methanopyrido[2,3-b][1,4]diazocine-2,10(7H)-dicarboxamide] | ≥ 150% | A (EC1.5<1 μM) |
| C[C@@H](NC(=O)c1ccc2c(n1)N(C(=O)Nc1ccc(OC[C@@H](O)CO)cn1)[C@H]1CCCN2C1)C(F)(F)F [Example 54, (9S)-N10-(5-((S)-2,3-dihydroxypropoxy)pyridin-2-yl)-N2-((R)-1,1,1-trifluoropropan-2-yl)-8,9-dihydro-6H-5,9-methanopyrido[2,3-b][1,4]diazocine-2,10(7H)-dicarboxamide] | ≥ 150% | A (EC1.5<1 μM) |
| C[C@@H](NC(=O)c1ccc2c(n1)N(C(=O)Nc1ccc(OC[C@H](O)CO)nn1)[C@H]1CCCN2C1)C(F)(F)F [Example 55, (9S)-N10-(6-((R)-2,3-dihydroxypropoxy)pyridazin-3-yl)-N2-((R)-1,1,1-trifluoropropan-2-yl)-8,9-dihydro-6H-5,9-methanopyrido[2,3-b][1,4]diazocine-2,10(7H)-dicarboxamide] | ≥ 150% | – |
| Cc1cc(C(=O)N[C@H](C)C(F)(F)F)nc2c1N1CCC[C@@H](C1)N2C(=O)Nc1ccc(OC[C@@H](O)CO)cn1 [Example 56, (9S)-N10-(5-((S)-2,3-dihydroxypropoxy)pyridin-2-yl)-4-methyl-N2-((R)-1,1,1-trifluoropropan-2-yl)-8,9-dihydro-6H-5,9-methanopyrido[2,3-b][1,4]diazocine-2,10(7H)-dicarboxamide] | ≥ 150% | A (EC1.5<1 μM) |
| Cc1cc(C(=O)N[C@H](C)C(F)(F)F)nc2c1N1CCC[C@@H](C1)N2C(=O)Nc1cc(OC[C@H](O)CO)ccn1 [Example 57, (9S)-N10-(4-((R)-2,3-dihydroxypropoxy)pyridin-2-yl)-4-methyl-N2-((R)-1,1,1-trifluoropropan-2-yl)-8,9-dihydro-6H-5,9-methanopyrido[2,3-b][1,4]diazocine-2,10(7H)-dicarboxamide] | ≥ 150% | A (EC1.5<1 μM) |
| O=C(Nc1ccccn1)N1c2nc(-c3cccc(C(F)(F)F)c3)c(Cl)cc2N2CCC[C@H]1C2 [Example 63, (9S)-3-chloro-N-(pyridin-2-yl)-2-(3-(trifluoromethyl)phenyl)-8,9-dihydro-6H-5,9-methanopyrido[2,3-b][1,4]diazocine-10(7H)-carboxamide] | ≥ 150% | A (EC1.5<1 μM) |
| O=C(Nc1cccc(OC[C@@H](O)CO)n1)N1c2nc(-c3cccc(C(F)(F)F)c3)c(Cl)cc2N2CCC[C@H]1C2 [Example 64, (9S)-3-chloro-N-(6-((S)-2,3-dihydroxypropoxy)pyridin-2-yl)-2-(3-(trifluoromethyl)phenyl)-8,9-dihydro-6H-5,9-methanopyrido[2,3-b][1,4]diazocine-10(7H)-carboxamide] | ≥ 150% | A (EC1.5<1 μM) |
| O=C(Nc1cccc(OC[C@H](O)CO)n1)N1c2nc(-c3cccc(C(F)(F)F)c3)c(Cl)cc2N2CCC[C@H]1C2 [Example 65, (9S)-3-chloro-N-(6-((R)-2,3-dihydroxypropoxy)pyridin-2-yl)-2-(3-(trifluoromethyl)phenyl)-8,9-dihydro-6H-5,9-methanopyrido[2,3-b][1,4]diazocine-10(7H)-carboxamide] | ≥ 150% | A (EC1.5<1 μM) |
| Cc1cc(-c2nc3c(cc2Cl)N2CCC[C@@H](C2)N3C(=O)Nc2cccnc2)ccn1 [Example 66, (9S)-3-chloro-2-(2-methylpyridin-4-yl)-N-(pyridin-3-yl)-8,9-dihydro-6H-5,9-methanopyrido[2,3-b][1,4]diazocine-10(7H)-carboxamide] | ≥ 150% | – |
| Cc1cc(-c2nc3c(cc2C)N2CCC[C@@H](C2)N3C(=O)Nc2cccnc2)ccn1 [Example 68, (9S)-3-methyl-2-(2-methylpyridin-4-yl)-N-(pyridin-3-yl)-8,9-dihydro-6H-5,9-methanopyrido[2,3-b][1,4]diazocine-10(7H)-carboxamide] | ≥ 150% | A (EC1.5<1 μM) |
